Each structure is given as a SMILES string.

The test has as its target T1, recombinant Vps34 (Homo sapiens, UniProt Q8NEB9).
T1 construct: purchased Invitrogen PV5126
As to the kind of experiment: Phosphorylation of phosphatidylinositol (PI) by Vps34 in vitro, ADP detected by TR-FRET (HTRF Transcreener ADP). The class given is biochemical. The settings on record: 10 μM ATP, 55 μg/ml PI, approximately 3 nM Vps34, 1 hour at ambient temperature; absolute IC50, mean of two independent experiments; read-out: IC50 activity range. For orientation: Time-resolved FRET reads energy transfer from a long-lived donor to a nearby acceptor.

T1 sequence (Q8NEB9 whole entry): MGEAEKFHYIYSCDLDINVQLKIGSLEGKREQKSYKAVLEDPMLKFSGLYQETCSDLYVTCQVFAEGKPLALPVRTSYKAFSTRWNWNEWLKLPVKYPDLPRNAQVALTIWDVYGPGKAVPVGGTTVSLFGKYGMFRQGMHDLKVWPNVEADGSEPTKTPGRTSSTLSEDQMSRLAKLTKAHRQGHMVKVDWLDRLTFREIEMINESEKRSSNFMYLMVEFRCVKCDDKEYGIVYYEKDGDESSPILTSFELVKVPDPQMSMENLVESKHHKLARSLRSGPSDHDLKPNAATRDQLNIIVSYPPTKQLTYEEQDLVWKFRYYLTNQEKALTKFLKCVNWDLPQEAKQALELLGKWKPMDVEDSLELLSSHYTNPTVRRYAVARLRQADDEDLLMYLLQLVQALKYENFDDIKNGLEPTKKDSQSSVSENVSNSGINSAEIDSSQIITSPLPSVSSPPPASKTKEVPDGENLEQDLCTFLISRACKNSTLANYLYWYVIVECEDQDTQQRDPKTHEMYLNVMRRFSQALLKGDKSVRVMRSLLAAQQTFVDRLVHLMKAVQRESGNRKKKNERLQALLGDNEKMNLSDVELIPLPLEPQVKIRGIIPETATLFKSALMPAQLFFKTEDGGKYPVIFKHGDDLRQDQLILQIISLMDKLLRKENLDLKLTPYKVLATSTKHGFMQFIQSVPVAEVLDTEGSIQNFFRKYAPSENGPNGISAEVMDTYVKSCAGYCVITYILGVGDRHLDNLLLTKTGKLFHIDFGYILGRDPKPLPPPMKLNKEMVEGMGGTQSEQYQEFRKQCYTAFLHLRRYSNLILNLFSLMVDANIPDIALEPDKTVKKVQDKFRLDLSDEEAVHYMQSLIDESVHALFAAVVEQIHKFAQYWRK

Consider `C[C@@H]1COCCN1c1nc2n(c(=O)c1F)CC[C@@H](C(F)(F)F)N2Cc1ccno1` [Example 46, (S)-3-Fluoro-9-isoxazol-5-ylmethyl-2-((R)-3-methyl-morpholin-4-yl)-8-trifluoromethyl-6,7,8,9-tetrahydro-pyrimido[1,2-a]-pyrimidin-4-one], for which the IC50 (as a rule, the concentration that gives 50% inhibition) was below 0.01 µM.
Turning to `C[C@@H]1COCCN1c1nc2n(c(=O)c1F)CC[C@@H](C(F)(F)F)N2c1cccnc1` [Example 47, (S)-3-Fluoro-2-((R)-3-methylmorpholin-4-yl)-9-pyridin-3-yl-8-trifluoromethyl-6,7,8,9-tetrahydro-pyrimido[1,2-a]-pyrimidin-4-one], the IC50 is 0.01 to 0.1 µM.
The value for `C[C@@H]1COCCN1c1nc2n(c(=O)c1F)CC[C@@H](C(F)(F)F)N2CCOCC(F)(F)F` [Example 48, (S)-3-Fluoro-2-((R)-3-methylmorpholin-4-yl)-9-[2-(2,2,2-trifluoro-ethoxy)ethyl]-8-trifluoromethyl-6,7,8,9-tetrahydro-pyrimido[1,2-a]-pyrimidin-4-one] was below 0.01 µM.
Turning to `C[C@@H]1COCCN1c1nc2n(c(=O)c1F)CC[C@@H](C(F)(F)F)N2CC(C)(C)O` [Example 49, (S)-3-Fluoro-9-(2-hydroxy-2-methyl-propyl)-2-((R)-3-methylmorpholin-4-yl)-8-trifluoromethyl-6,7,8,9-tetrahydro-pyrimido[1,2-a]-pyrimidin-4-one], the IC50 is below 0.01 µM.
Take `C[C@@H]1COCCN1c1nc2n(c(=O)c1F)CC[C@@H](C(F)(F)F)N2CC(=O)c1cccnc1` [Example 50, (S)-3-Fluoro-2-((R)-3-methylmorpholin-4-yl)-9-(2-oxo-2-pyridin-3-ylethyl)-8-trifluoromethyl-6,7,8,9-tetrahydro-pyrimido[1,2-a]-pyrimidin-4-one]: the IC50 is below 0.01 µM.
As to `C[C@@H]1COCCN1c1nc2n(c(=O)c1F)CC[C@@H](C(F)(F)F)N2Cc1ccc(F)nc1` [Example 51, (S)-3-Fluoro-9-(6-fluoropyridin-3-yl-methyl)-2-((R)-3-methylmorpholin-4-yl)-8-trifluoromethyl-6,7,8,9-tetrahydro-pyrimido[1,2-a]-pyrimidin-4-one], the IC50 was below 0.01 µM.
For the compound `C[C@@H]1COCCN1c1nc2n(c(=O)c1F)CC[C@@H](C(F)(F)F)N2Cc1ccc(Cl)nc1` [Example 52, (S)-9-(6-Chloro-pyridin-3-ylmethyl)-3-fluoro-2-((R)-3-methyl-morpholin-4-yl)-8-trifluoromethyl-6,7,8,9-tetrahydro-pyrimido[1,2-a]-pyrimidin-4-one], the IC50 was below 0.01 µM.
In the case of `C[C@@H]1COCCN1c1nc2n(c(=O)c1F)CC[C@@H](C(F)(F)F)N2c1ccc(C(F)F)nc1` [Example 53, (S)-9-(6-Difluoromethylpyridin-3-yl)-3-fluoro-2-((R)-3-methylmorpholin-4-yl)-8-trifluoromethyl-6,7,8,9-tetrahydro-pyrimido[1,2-a]-pyrimidin-4-one], the IC50 was below 0.01 µM.
`C[C@@H]1COCCN1c1nc2n(c(=O)c1F)CC[C@@H](C(F)(F)F)N2Cc1noc(C(C)(C)C)n1` [Example 54, (S)-9-(5-tert-Butyl-[1,2,4]oxadiazol-3-yl-methyl)-3-fluoro-2-((R)-3-methyl-morpholin-4-yl)-8-trifluoromethyl-6,7,8,9-tetrahydro-pyrimido[1,2-a]-pyrimidin-4-one]: the IC50 is below 0.01 µM.
In the case of `C[C@@H]1COCCN1c1nc2n(c(=O)c1F)CC[C@@H](C(F)(F)F)N2c1ccncc1` [Example 55, (S)-3-Fluoro-2-((R)-3-methylmorpholin-4-yl)-9-pyridin-4-yl-8-trifluoromethyl-6,7,8,9-tetrahydro-pyrimido[1,2-a]-pyrimidin-4-one], the IC50 is below 0.01 µM.
With `C[C@@H]1COCCN1c1nc2n(c(=O)c1F)CC[C@@H](C(F)(F)F)N2Cc1ccc(F)cn1` [Example 56, (S)-3-Fluoro-9-(5-fluoropyridin-2-yl-methyl)-2-((R)-3-methylmorpholin-4-yl)-8-trifluoromethyl-6,7,8,9-tetrahydro-pyrimido[1,2-a]-pyrimidin-4-one], the IC50 is below 0.01 µM.
Consider `C[C@@H]1COCCN1c1nc2n(c(=O)c1F)CC[C@@H](C(F)(F)F)N2Cc1cncc(F)c1` [Example 57, (S)-3-Fluoro-9-(5-fluoropyridin-3-yl-methyl)-2-((R)-3-methylmorpholin-4-yl)-8-trifluoromethyl-6,7,8,9-tetrahydro-pyrimido[1,2-a]-pyrimidin-4-one], for which the IC50 is below 0.01 µM.
With `C[C@@H]1COCCN1c1nc2n(c(=O)c1F)CC[C@@H](C(F)(F)F)N2Cc1cccnc1F` [Example 58, (S)-3-Fluoro-9-(2-fluoropyridin-3-yl-methyl)-2-((R)-3-methylmorpholin-4-yl)-8-trifluoromethyl-6,7,8,9-tetrahydro-pyrimido[1,2-a]-pyrimidin-4-one], the IC50 is below 0.01 µM.
Turning to `C[C@@H]1COCCN1c1nc2n(c(=O)c1F)CC[C@@H](C(F)(F)F)N2CC(=O)c1ncccc1F` [Example 59, (S)-3-Fluoro-9-[2-(3-fluoropyridin-2-yl)-2-oxoethyl]-2-((R)-3-methylmorpholin-4-yl)-8-trifluoromethyl-6,7,8,9-tetrahydro-pyrimido[1,2-a]-pyrimidin-4-one], the IC50 is below 0.01 µM.
With `C[C@@H]1COCCN1c1cc(=O)n2c(n1)N(CC(=O)c1ncccc1F)[C@H](C(F)(F)F)CC2` [Example 60, (S)-9-[2-(3-Fluoro-pyridin-2-yl)-2-oxo-ethyl]-2-((R)-3-methyl-morpholin-4-yl)-8-trifluoromethyl-6,7,8,9-tetrahydro-pyrimido[1,2-a]-pyrimidin-4-one], the IC50 is below 0.01 µM.
The value for `COc1cc(C(=O)CN2c3nc(N4CCOC[C@H]4C)cc(=O)n3CC[C@H]2C(F)(F)F)ccn1` [Example 61, (S)-9-[2-(2-Methoxy-pyridin-4-yl)-2-oxo-ethyl]-2-((R)-3-methyl-morpholin-4-yl)-8-trifluoromethyl-6,7,8,9-tetrahydro-pyrimido[1,2-a]-pyrimidin-4-one] was below 0.01 µM.
The value for `Cc1nocc1CN1c2nc(N3CCOC[C@H]3C)c(F)c(=O)n2CC[C@H]1C(F)(F)F` [Example 62, (S)-3-Fluoro-9-(3-methylisoxazol-4-yl-methyl)-2-((R)-3-methylmorpholin-4-yl)-8-trifluoromethyl-6,7,8,9-tetrahydro-pyrimido[1,2-a]-pyrimidin-4-one] was below 0.01 µM.
`C[C@@H]1COCCN1c1cc(=O)n2c(n1)N(CC(=O)c1cccc(F)n1)[C@H](C(F)(F)F)CC2` [Example 63, (S)-9-[2-(6-Fluoro-pyridin-2-yl)-2-oxo-ethyl]-2-((R)-3-methyl-morpholin-4-yl)-8-trifluoromethyl-6,7,8,9-tetrahydro-pyrimido[1,2-a]-pyrimidin-4-one]: the IC50 is below 0.01 µM.
Turning to `C[C@@H]1COCCN1c1cc(=O)n2c(n1)N(Cc1cn3ccccc3n1)[C@H](C(F)(F)F)CC2` [Example 64, (S)-9-Imidazo[1,2-a]-pyridin-2-ylmethyl-2-((R)-3-methyl-morpholin-4-yl)-8-trifluoromethyl-6,7,8,9-tetrahydro-pyrimido[1,2-a]-pyrimidin-4-one], the IC50 was above 0.1 µM.
`C[C@@H]1COCCN1c1cc(=O)n2c(n1)N(Cc1cc(Cl)ccn1)[C@H](C(F)(F)F)CC2` [Example 65, (S)-9-(4-Chloro-pyridin-2-ylmethyl)-2-((R)-3-methyl-mopholin-4-yl)-8-trifluoromethyl-6,7,8,9-tetrahydro-pyrimido[1,2-a]-pyrimidin-4-one]: the IC50 was below 0.01 µM.
With `C[C@@H]1COCCN1c1cc(=O)n2c(n1)N(Cc1ccncc1Cl)[C@H](C(F)(F)F)CC2` [Example 66, (S)-9-(3-Chloro-pyridin-4-ylmethyl)-2-((R)-3-methyl-mopholin-4-yl)-8-trifluoromethyl-6,7,8,9-tetrahydro-pyrimido[1,2-a]-pyrimidin-4-one], the IC50 is below 0.01 µM.
Turning to `C[C@@H]1COCCN1c1cc(=O)n2c(n1)N(CC(=O)Cc1ccccn1)[C@H](C(F)(F)F)CC2` [Example 67, (S)-2-((R)-3-Methyl-morpholin-4-yl)-9-(2-oxo-3-pyridin-2-yl-propyl)-8-trifluoromethyl-6,7,8,9-tetrahydro-pyrimido[1,2-a]-pyrimidin-4-one], the IC50 was below 0.01 µM.
The value for `C[C@@H]1COCCN1c1nc2n(c(=O)c1F)CC[C@@H](C(F)(F)F)N2CC(=O)c1nccs1` [Example 68, (S)-3-Fluoro-2-((R)-3-methylmorpholin-4-yl)-9-(2-oxo-2-thiazol-2-yl-ethyl)-8-trifluoromethyl-6,7,8,9-tetrahydro-pyrimido[1,2-a]-pyrimidin-4-one] was below 0.01 µM.
Consider `C[C@@H]1COCCN1c1nc2n(c(=O)c1F)CC[C@@H](C(F)(F)F)N2Cc1cscn1` [Example 69, (S)-3-Fluoro-2-((R)-3-methylmorpholin-4-yl)-9-thiazol-4-ylmethyl-8-trifluoromethyl-6,7,8,9-tetrahydro-pyrimido[1,2-a]-pyrimidin-4-one], for which the IC50 is below 0.01 µM.
In the case of `C[C@@H]1COCCN1c1cc(=O)n2c(n1)N(CC(=O)c1ccc(F)cn1)[C@H](C(F)(F)F)CC2` [Example 70, (S)-9-[2-(5-Fluoro-pyridin-2-yl)-2-oxo-ethyl]-2-((R)-3-methyl-morpholin-4-yl)-8-trifluoromethyl-6,7,8,9-tetrahydro-pyrimido[1,2-a]-pyrimidin-4-one], the IC50 is below 0.01 µM.
With `C[C@@H]1COCCN1c1nc2n(c(=O)c1F)CCC(C)(C)N2CC(=O)c1ccccn1` [Example 71, 3-Fluoro-8,8-dimethyl-2-((R)-3-methyl-morpholin-4-yl)-9-(2-oxo-2-pyridin-2-yl-ethyl)-6,7,8,9-tetrahydro-pyrimido[1,2-a]-pyrimidin-4-one], the IC50 was below 0.01 µM.
The value for `C[C@@H]1COCCN1c1cc(=O)n2c(n1)N(Cc1ccnn1C(F)F)C(C)(C)CC2` [Example 72, 9-(2-Difluoromethyl-2H-pyrazol-3-yl-methyl)-8,8-dimethyl-2-((R)-3-methyl-morpholin-4-yl)-6,7,8,9-tetrahydro-pyrimido[1,2-a]-pyrimidin-4-one] was 0.01 to 0.1 µM.

The record behind these values is patent US11739100B2, “2,3-dihydro-1h-imidazo{1,2-a}pyrimidin-5-one and this 1,2,3,4-tetrahydropyrimido{1,2-a}pyrimidin-6-one derivatives comprising a substituted morpholine, preparation thereof and pharmaceutical use thereof” (SANOFI, priority 2012, dated 2023).
